Laboratory results taken from patent US11446287B2, “Compounds and methods for EP300 or CBP modulation and indications therefor” (Opna Immuno-Oncology SA, priority 2019, dated 2022).

molecular target: T1, Recombinant human BRD4 containing dual bromodomains (BRD4-BD12 (1-477)) (Homo sapiens, UniProt O60885); assay: BRD4 Alphascreen binding assay
T1 construct: Recombinant human BRD4 containing dual bromodomains (BRD4-BD12 (1-477)); made in house; host or cells: E. coli BL21-CodonPlus (DE3), modified pET vector
Outline: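 His-tagged human BRD4 tandem bromodomains (1-477, E. coli) incubated 1 h at room temperature with biotinylated tetra-acetylated H4 (1-21) peptide and compound in HEPES pH 7.5 buffer with 2 mM DTT. AlphaScreen signal read 30 min after adding beads (7.5 μg/ml); IC50 from four-parameter fit after normalization to controls.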

| SMILES | IC50 [µM] |
| --- | --- |
| COC(=O)c1cc(-c2cn(C(c3ccccn3)C3CCC3)c3ncc(-c4c(C)noc4C)cc23)ccn1 (stereo not shown) [P-0046, methyl 4-(1-(cyclobutyl(pyridin-2-yl)methyl)-5-(3,5-dimethylisoxazol-4-yl)-1H-pyrrolo[2,3-b]pyridin-3-yl)picolinate] | 8 to 1000 |
| Cc1noc(C)c1-c1cnc2c(c1)c(-c1c(Cl)cc(C(=O)O)cc1OC(F)(F)F)cn2-c1cccnn1 [P-0439, 3-chloro-4-(5-(3,5-dimethylisoxazol-4-yl)-1-(pyridazin-3-yl)-1H-pyrrolo[2,3-b]pyridin-3-yl)-5-(trifluoromethoxy)benzoic acid] | 0.0001 to 1 |
| Cc1noc(C)c1-c1cnc2c(c1)c(-c1ccc(C(=O)O)cc1OC(F)(F)F)cn2-c1ccc(C2CC2)nc1 [P-0388, 4-(1-(6-cyclopropylpyridin-3-yl)-5-(3,5-dimethylisoxazol-4-yl)-1H-pyrrolo[2,3-b]pyridin-3-yl)-3-(trifluoromethoxy)benzoic acid] | 1 to 8 |
| Cc1noc(C)c1-c1cnc2c(c1)c(-c1cccc(C(=O)O)c1)cn2Cc1ccccn1 [P-0049, 3-(5-(3,5-dimethylisoxazol-4-yl)-1-(pyridin-2-ylmethyl)-1H-pyrrolo[2,3-b]pyridin-3-yl)benzoic acid] | 8 to 1000 |
| Cc1noc(C)c1-c1cnc2c(c1)c(-c1ccc(C(=O)O)cc1OC(F)(F)F)cn2C1CCC(C#N)C1 (stereo not shown) [P-0389, 4-(1-(3-cyanocyclopentyl)-5-(3,5-dimethylisoxazol-4-yl)-1H-pyrrolo[2,3-b]pyridin-3-yl)-3-(trifluoromethoxy)benzoic acid] | 1 to 8 |
| Cc1noc(C)c1-c1cnc2c(c1)c(-c1c(Cl)cc(C(=O)O)cc1OCC(F)F)cn2-c1cnc(C2CC2)nc1 [P-0390, 3-chloro-4-(1-(2-cyclopropylpyrimidin-5-yl)-5-(3,5-dimethylisoxazol-4-yl)-1H-pyrrolo[2,3-b]pyridin-3-yl)-5-(2,2-difluoroethoxy)benzoic acid] | 1 to 8 |
| CCOc1nc(C(=O)O)cc(C)c1-c1cn(C(C2CC2)C2CC2)c2ncc(-c3c(C)noc3C)cc12 [P-0417, 5-(1-(dicyclopropylmethyl)-5-(3,5-dimethylisoxazol-4-yl)-1H-pyrrolo[2,3-b]pyridin-3-yl)-6-ethoxy-4-methylpicolinic acid] | 8 to 1000 |
| Cc1noc(C)c1-c1cnc2c(c1)c(-c1ccnc(C(=O)O)c1C)cn2C1CCOCC1 [P-0419, 4-(5-(3,5-dimethylisoxazol-4-yl)-1-(tetrahydro-2H-pyran-4-yl)-1H-pyrrolo[2,3-b]pyridin-3-yl)-3-methylpicolinic acid] | 0.0001 to 1 |
| Cc1noc(C)c1-c1cnc2c(Cc3ccccc3)cn(-c3ccnc(C(=O)O)c3)c2c1 [P-0053, 4-(3-benzyl-6-(3,5-dimethylisoxazol-4-yl)-1H-pyrrolo[3,2-b]pyridin-1-yl)picolinic acid] | 1 to 8 |
| Cc1noc(C)c1-c1cnc2c(C(=O)c3ccccc3)cn(-c3ccnc(C(=O)O)c3)c2c1 [P-0054, 4-(3-benzoyl-6-(3,5-dimethylisoxazol-4-yl)-1H-pyrrolo[3,2-b]pyridin-1-yl)picolinic acid] | 0.0001 to 1 |
| Cc1noc(C)c1-c1cnc2c(c1)c(-c1cccc(C(=O)O)c1)cn2Cc1ccccc1 [P-0048, 3-(1-benzyl-5-(3,5-dimethylisoxazol-4-yl)-1H-pyrrolo[2,3-b]pyridin-3-yl)benzoic acid] | 1 to 8 |
| Cc1noc(C)c1-c1cnc2c(c1)c(-c1c(Cl)cc(C(=O)O)cc1OC1CCC1)cn2-c1cnc(C2CC2)nc1 [P-0391, 3-chloro-5-cyclobutoxy-4-(1-(2-cyclopropylpyrimidin-5-yl)-5-(3,5-dimethylisoxazol-4-yl)-1H-pyrrolo[2,3-b]pyridin-3-yl)benzoic acid] | 1 to 8 |
| Cc1noc(C)c1-c1cnc2c(c1)c(-c1c(Cl)cc(C(=O)O)cc1OC(C)C)cn2C1(C)CCOCC1 [P-0404, 3-chloro-4-(5-(3,5-dimethylisoxazol-4-yl)-1-(4-methyltetrahydro-2H-pyran-4-yl)-1H-pyrrolo[2,3-b]pyridin-3-yl)-5-isopropoxybenzoic acid] | 8 to 1000 |
| CCOc1nc(C(=O)O)cc(C)c1-c1cn(C2CCOCC2)c2ncc(-c3c(C)noc3C)cc12 [P-0411, 5-(5-(3,5-dimethylisoxazol-4-yl)-1-(tetrahydro-2H-pyran-4-yl)-1H-pyrrolo[2,3-b]pyridin-3-yl)-6-ethoxy-4-methylpicolinic acid] | 8 to 1000 |
| CCOc1cc(C(=O)O)nc(OCC)c1-c1cn(-c2ccccc2F)c2ncc(-c3c(C)noc3C)cc12 [P-0414, 5-(5-(3,5-dimethylisoxazol-4-yl)-1-(2-fluorophenyl)-1H-pyrrolo[2,3-b]pyridin-3-yl)-4,6-diethoxypicolinic acid] | 1 to 8 |
| Cc1noc(C)c1-c1cnc2c(c1)c(-c1c(Cl)cc(C(=O)O)cc1OC(F)(F)F)cn2-c1ccc(C2CC2)nc1 [P-0441, 3-chloro-4-(1-(6-cyclopropylpyridin-3-yl)-5-(3,5-dimethylisoxazol-4-yl)-1H-pyrrolo[2,3-b]pyridin-3-yl)-5-(trifluoromethoxy)benzoic acid] | 0.0001 to 1 |

| SMILES | IC50 [µM] |
| --- | --- |
| Cc1noc(C)c1-c1cnc2c(c1)c(-c1ccnc(C(=O)O)c1)cn2CC1CC1 [P-0045, 4-(1-(cyclopropylmethyl)-5-(3,5-dimethylisoxazol-4-yl)-1H-pyrrolo[2,3-b]pyridin-3-yl)picolinic acid] | 0.0001 to 1 |
| Cc1noc(C)c1-c1cnc2c(c1)c(-c1ccnc(C(=O)O)c1)cn2C(c1ccccn1)C1CCC1 (stereo not shown) [P-0043, 4-(1-(cyclobutyl(pyridin-2-yl)methyl)-5-(3,5-dimethylisoxazol-4-yl)-1H-pyrrolo[2,3-b]pyridin-3-yl)picolinic acid] | 1 to 8 |
| Cc1noc(C)c1-c1cnc2c(c1)c(-c1c(Cl)cc(C(=O)O)cc1OC(F)(F)F)cn2-c1ncccc1C#N [P-0395, 3-chloro-4-(1-(3-cyanopyridin-2-yl)-5-(3,5-dimethylisoxazol-4-yl)-1H-pyrrolo[2,3-b]pyridin-3-yl)-5-(trifluoromethoxy)benzoic acid] | 1 to 8 |
| CCOc1cc(C(=O)O)nc(OCC)c1-c1cn(C(C2CC2)C2CC2)c2ncc(-c3c(C)noc3C)cc12 [P-0420, 5-(1-(dicyclopropylmethyl)-5-(3,5-dimethylisoxazol-4-yl)-1H-pyrrolo[2,3-b]pyridin-3-yl)-4,6-diethoxypicolinic acid] | 8 to 1000 |
| CCOc1cc(C(=O)O)c(F)cc1-c1cn(C2CCN(C(=O)OC(C)(C)C)CC2)c2ncc(-c3c(C)noc3C)cc12 [P-0442, 4-(1-(1-(tert-butoxycarbonyl)piperidin-4-yl)-5-(3,5-dimethylisoxazol-4-yl)-1H-pyrrolo[2,3-b]pyridin-3-yl)-5-ethoxy-2-fluorobenzoic acid] | 8 to 1000 |
| Cc1noc(C)c1-c1cnc2c(c1)c(-c1cnn(CC(=O)O)c1)cn2C(c1ccccn1)C1CCCC1 (stereo not shown) [P-0036, 2-(4-(1-(cyclopentyl(pyridin-2-yl)methyl)-5-(3,5-dimethylisoxazol-4-yl)-1H-pyrrolo[2,3-b]pyridin-3-yl)-1H-pyrazol-1-yl)acetic acid] | 1 to 8 |
| CCOc1nc(C(=O)O)cc(C)c1-c1cn(-c2ccc(F)cc2F)c2ncc(-c3c(C)noc3C)cc12 [P-0412, 5-(1-(2,4-difluorophenyl)-5-(3,5-dimethylisoxazol-4-yl)-1H-pyrrolo[2,3-b]pyridin-3-yl)-6-ethoxy-4-methylpicolinic acid] | 1 to 8 |
| CCOc1cc(C(=O)O)nc(OCC)c1-c1cn(C2CCN(S(C)(=O)=O)CC2)c2ncc(-c3c(C)noc3C)cc12 [P-0435, 5-(5-(3,5-dimethylisoxazol-4-yl)-1-(1-(methylsulfonyl)piperidin-4-yl)-1H-pyrrolo[2,3-b]pyridin-3-yl)-4,6-diethoxypicolinic acid] | 8 to 1000 |
| Cc1noc(C)c1-c1cnc2c(c1)c(-c1ccc(CC(=O)O)cc1)cn2-c1ccc(F)cc1F [P-0438, 2-(4-(1-(2,4-difluorophenyl)-5-(3,5-dimethylisoxazol-4-yl)-1H-pyrrolo[2,3-b]pyridin-3-yl)phenyl)acetic acid] | 8 to 1000 |
| Cc1noc(C)c1-c1cnc2c(c1)c(-c1c(F)cc(C(=O)O)cc1OC1CC1)cn2C1CCOCC1 [P-0397, 3-cyclopropoxy-4-(5-(3,5-dimethylisoxazol-4-yl)-1-(tetrahydro-2H-pyran-4-yl)-1H-pyrrolo[2,3-b]pyridin-3-yl)-5-fluorobenzoic acid] | 8 to 1000 |
| Cc1noc(C)c1-c1cnc2c(c1)c(C1CCC(C(=O)O)CC1)cn2-c1ccc(F)cc1F (stereo not shown) [P-0434, 4-(1-(2,4-difluorophenyl)-5-(3,5-dimethylisoxazol-4-yl)-1H-pyrrolo[2,3-b]pyridin-3-yl)cyclohexane-1-carboxylic acid] | 1 to 8 |
| Cc1noc(C)c1-c1cnc2c(c1)c(-c1ccc(C(=O)O)cc1OC(C)C)cn2C1(C)CCOCC1 [P-0403, 4-(5-(3,5-dimethylisoxazol-4-yl)-1-(4-methyltetrahydro-2H-pyran-4-yl)-1H-pyrrolo[2,3-b]pyridin-3-yl)-3-isopropoxybenzoic acid] | 8 to 1000 |
| Cc1noc(C)c1-c1cnc2c(c1)c(-c1ccnc(C(=O)O)c1)cn2C(C1CC1)C1CC1 [P-0041, 4-(1-(dicyclopropylmethyl)-5-(3,5-dimethylisoxazol-4-yl)-1H-pyrrolo[2,3-b]pyridin-3-yl)picolinic acid] | 0.0001 to 1 |
| Cc1cc(C(=O)O)cc(OC(C)C)c1-c1cn(C2CCOCC2)c2ncc(-c3c(C)noc3C)cc12 [P-0402, 4-(5-(3,5-dimethylisoxazol-4-yl)-1-(tetrahydro-2H-pyran-4-yl)-1H-pyrrolo[2,3-b]pyridin-3-yl)-3-isopropoxy-5-methylbenzoic acid] | 1 to 8 |
| CCOc1cc(C(=O)O)nc(OCC)c1-c1cn(-c2cn(C(F)F)nc2C)c2ncc(-c3c(C)noc3C)cc12 [P-0429, 5-(1-(1-(difluoromethyl)-3-methyl-1H-pyrazol-4-yl)-5-(3,5-dimethylisoxazol-4-yl)-1H-pyrrolo[2,3-b]pyridin-3-yl)-4,6-diethoxypicolinic acid] | 8 to 1000 |
